Assay results taken from patent US9908890B2, “Selective inhibitors of constitutive androstane receptor” (ST. JUDE CHILDREN'S RESEARCH HOSPITAL, priority 2014, dated 2018).
Where “and” joins values, the source holds several entries; their conditions need not be identical. Equal values may be shown once. Read-outs that look alike come from different tables or passages of the source.

Target: T1, GST-hCAR-LBD (Homo sapiens, UniProt Q14994)
T1 construct: purchased Life Technologies (Carlsbad, Calif.) or Invitrogen (Carlsbad, Calif.)
T1 sequence (Q14994 109-352 limits assumed): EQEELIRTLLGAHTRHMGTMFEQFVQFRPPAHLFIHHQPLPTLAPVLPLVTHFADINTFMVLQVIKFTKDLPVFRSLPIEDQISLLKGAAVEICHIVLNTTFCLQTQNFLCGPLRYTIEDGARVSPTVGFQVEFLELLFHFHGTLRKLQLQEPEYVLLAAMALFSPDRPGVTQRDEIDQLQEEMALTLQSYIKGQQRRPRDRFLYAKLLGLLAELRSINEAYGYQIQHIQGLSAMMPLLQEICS
Experiment: CoAct binding inverse agonist assay (LanthaScreen TR-FRET, fluorescent PGC-1α coactivator recruitment/repression)
Assay type: biochemical
Conditions: for inhibition at 70 µM / % Inhibition (70 μM): 70 μM compound, 42 μM clotrimazole = 100%, DMSO = 0%; for inhibition at 70 µM: read-out: % Inhibition (70 μM); for fold increase of CAR inverse agonistic activity (potency) over lead chemical 1 (CINPA1) / fold increase of IC50 (decrease of activity) relative to lead chemical 1 (CINPA1): relative to chemical 1
Description: The effect of putative CAR ligands on the recruitment or repression of PGC-1α binding to hCAR was evaluated by using a LanthaScreen TR-FRET assay according to the manufacturer's instructions. […] The final DMSO concentration was 0.7% in all assay wells. […] The % Inhibition values were then plotted for individual chemicals. When applicable, the graphic software GraphPad Prism 5.04 (GraphPad Software, La Jolla, Calif., USA) was used to fit the data into a one-site competitive-binding equation to derive IC50 values. […] The assay plates were then briefly spun down and incubated for 1 hour at room temperature (25° C.). […] The final DMSO concentration was 0.7% in all assay wells. […] The % Inhibition values were then plotted for individual chemicals. When applicable, the graphic software GraphPad Prism 5.04 (GraphPad Software, La Jolla, Calif., USA) was used to fit the data into a one-site competitive-binding equation to derive IC50 values.

[1] = read-out: IC50 (CAR inverse agonistic activity)
[2] = Table 6, CINPA1 and commercially available analogs, read-out: IC50

| Compound | IC50 [1] | IC50 (Table 4, read-out: IC50) | inhibition at 70 µM | other results |
| --- | --- | --- | --- | --- |
| COC(=O)Nc1ccc2c(c1)N(C(=O)CCN1CCOCC1)c1ccccc1CC2 [compound 87] | 290 nM |  |  |  |
| CCOC(=O)Nc1ccc2c(c1)N(C(=O)Cn1ccnc1)c1ccccc1CC2 [Compound 17, ethyl (5-(2-(1H-imidazol-1-yl)acetyl)-10,11-dihydro-5H-dibenzo[b,f]azepin-3-yl)carbamate] | 6890 nM |  | 101% | fold IC50 relative to chemical 16 (relative to chemical 16): 186 fold |
| CC(C)OC(=O)Nc1ccc2c(c1)N(C(=O)COC1CCCCC1)c1ccccc1CC2 [Compound 36, isopropyl (5-(2-(cyclohexyloxy)acetyl)-10,11-dihydro-5H-dibenzo[b,f]azepin-3-yl)carbamate] | 24 nM |  |  |  |
| CCOC(=O)Nc1ccc2c(c1)N(C(=O)CN1C(C)(C)CCCC1(C)C)c1ccccc1CC2 [Compound 14, ethyl (5-(2-(2,2,6,6-tetramethylpiperidin-1-yl)acetyl)-10,11-dihydro-5H-dibenzo[b,f]azepin-3-yl)carbamate] | 4080 nM |  | 90.5% | fold IC50 relative to chemical 18 (relative to chemical 18): over 6 fold |
| CCOCC(=O)N1c2ccccc2CCc2ccc(NC(=O)OC(C)C)cc21 [Compound 29, isopropyl (5-(2-ethoxyacetyl)-10,11-dihydro-5H-dibenzo[b,f]azepin-3-yl)carbamate] | 11400 nM |  |  |  |
| Clc1ccccc1C(c1ccccc1)(c1ccccc1)n1ccnc1 [Clotrimazole, reference compound] |  |  |  | inhibition at 42 µM (42 μM clotrimazole, positive control): 100% |
| CCOC(=O)Nc1ccc2c(c1)N(C(=O)COC(C)(C)C)c1ccccc1CC2 [Compound 19, ethyl (5-(2-(tert-butoxy)acetyl)-10,11-dihydro-5H-dibenzo[b,f]azepin-3-yl)carbamate] | 71 nM |  | 120% | fold increase of CAR inverse agonistic activity (potency) over lead chemical 1 (CINPA1): 9.7 fold |
| O=C(Nc1ccc2c(c1)N(C(=O)c1cccs1)c1ccccc1CC2)OC1CCCCC1 [Compound 68] |  | 19 nM |  |  |
| CCC(C)OCC(=O)N1c2ccccc2CCc2ccc(NC(=O)OC(C)C)cc21 (stereo not drawn) [Compound 31, isopropyl (5-(2-(sec-butoxy)acetyl)-10,11-dihydro-5H-dibenzo[b,f]azepin-3-yl)carbamate] | 35 nM |  |  |  |
| CC(C)OC(=O)Nc1ccc2c(c1)N(C(=O)n1cccc1)c1ccccc1CC2 [Compound 55] |  | 18 nM |  |  |
| CCOC(=O)Nc1ccc2c(c1)N(C(=O)CN(CC)CC)c1ccccc1CC2 [Compound 70] |  | 620 nM |  | % Inhibition (70 μM): 104.8% |
| CC(C)(C)COC(=O)N1c2ccccc2CCc2ccc(NC(=O)OC3CCCCC3)cc21 [Compound 61] |  | 41 nM |  |  |
| CCOC(=O)Nc1ccc2c(c1)N(C(=O)Cn1cccc1)c1ccccc1CC2 [Compound 16, ethyl (5-(2-(1H-pyrrol-1-yl)acetyl)-10,11-dihydro-5H-dibenzo[b,f]azepin-3-yl)carbamate] | 37 nM |  | 121% | fold increase of CAR inverse agonistic activity (potency) over lead chemical 1 (CINPA1): 19 fold; fold more potent than chemical 13 (relative to chemical 13): 43 fold |
| CC(C)OC(=O)Nc1ccc2c(c1)N(C(=O)CCN1CCN(CCO)CC1)c1ccccc1CC2 [compound 88] | > 70000 nM |  |  | IC50 [2]: > 70000 nM |
| CCCN(CCC)CC(=O)N1c2ccccc2CCc2ccc(NC(=O)OCC)cc21 [Compound 11, ethyl (5-(dipropylglycyl)-10,11-dihydro-5H-dibenzo[b,f]azepin-3-yl)carbamate] | 210 nM |  | 113% | fold increase of CAR inverse agonistic activity (potency) over lead chemical 1 (CINPA1): 3 fold |
| CCN(CC)CC(=O)N1c2ccccc2CCc2ccc(NC(=O)C(C)(C)C)cc21 [Compound 4, N-(5-(diethylglycyl)-10,11-dihydro-5H-dibenzo[b,f]azepin-3-yl)pivalamide] | 1030 nM |  | 113% |  |
| CCOC(=O)Nc1ccc2c(c1)N(C(=O)CN(CC)CC)c1ccccc1CC2 [1 (CINPA1)] |  |  |  | IC50 [2]: 690 nM |
| CCNCC(=O)N1c2ccccc2CCc2ccc(N)cc21 [Compound 72] |  |  | 27% |  |
| O=C(Nc1ccc2c(c1)N(C(=O)COC1CCCC1)c1ccccc1CC2)OC1CCCCC1 [Compound 51] |  | 65 nM |  |  |
| CCOC(=O)Nc1ccc2c(c1)N(C(=O)CN1CCCC1)c1ccccc1CC2 [Compound 13, ethyl (5-(2-(pyrrolidin-1-yl)acetyl)-10,11-dihydro-5H-dibenzo[b,f]azepin-3-yl)carbamate] | 1580 nM | 1580 nM | 115% | IC50 (quoted in SAR text in nM, read-out: IC50 (CAR inverse agonistic activity)): 1580 nM; fold increase of IC50 (decrease of activity) relative to lead chemical 1 (CINPA1): more than 2 fold |
| O=C(Nc1ccc2c(c1)N(C(=O)Cn1cccc1)c1ccccc1CC2)OC1CCCC1 [Compound 43, cyclopentyl (5-(2-(1H-pyrrol-1-yl)acetyl)-10,11-dihydro-5H-dibenzo[b,f]azepin-3-yl)carbamate] | 14 nM |  |  |  |
| CCNC(=O)Nc1ccc2c(c1)N(C(=O)CN(CC)CC)c1ccccc1CC2 [Compound 5, 1-(5-(diethylglycyl)-10,11-dihydro-5H-dibenzo[b,f]azepin-3-yl)-3-ethylurea] | 14400 nM |  | 94.9% |  |

More lines, main results first:

| IC50 [1] | IC50 (Table 4, read-out: IC50) | Compound | inhibition at 70 µM | other results |
| --- | --- | --- | --- | --- |
| 12 nM |  | O=C(Nc1ccc2c(c1)N(C(=O)Cn1cccc1)c1ccccc1CC2)OC1CCCCC1 [Compound 44, cyclohexyl (5-(2-(1H-pyrrol-1-yl)acetyl)-10,11-dihydro-5H-dibenzo[b,f]azepin-3-yl)carbamate] |  | fold increase of CAR inverse agonistic activity (potency) over lead chemical 1 (CINPA1): approximately 59 fold |
|  | 24500 nM | CCNCC(=O)N1c2ccccc2CCc2ccc(NC(=O)OCC)cc21 [Compound 24, ethyl (5-(ethylglycyl)-10,11-dihydro-5H-dibenzo[b,f]azepin-3-yl)carbamate] | 88.4% | fold increase of IC50 (decrease of activity) relative to lead chemical 1 (CINPA1): over 35 fold |
| 20 nM |  | CC(C)OC(=O)Nc1ccc2c(c1)N(C(=O)COC1CCCC1)c1ccccc1CC2 [Compound 35, isopropyl (5-(2-(cyclopentyloxy)acetyl)-10,11-dihydro-5H-dibenzo[b,f]azepin-3-yl)carbamate] |  |  |
|  | 31 nM | O=C(Nc1ccc2c(c1)N(C(=O)Cc1ccco1)c1ccccc1CC2)OC1CCCCC1 [Compound 67] |  |  |
|  | 37 nM | CC(C)OC(=O)Nc1ccc2c(c1)N(C(=O)Cc1ccco1)c1ccccc1CC2 [Compound 63] |  |  |
| 60 nM |  | CC(C)OCC(=O)N1c2ccccc2CCc2ccc(NC(=O)OC(C)C)cc21 [Compound 30, isopropyl (5-(2-isopropoxyacetyl)-10,11-dihydro-5H-dibenzo[b,f]azepin-3-yl)carbamate] |  |  |
|  | 25 nM | CC(C)OC(=O)Nc1ccc2c(c1)N(C(=O)OCC(C)(C)C)c1ccccc1CC2 [Compound 57] |  |  |
|  | 81 nM | O=C(Cn1cccc1)N1c2ccccc2CCc2ccc(NC(=O)n3cccc3)cc21 [Compound 46] |  |  |
| 21 nM |  | CC(C)OC(=O)Nc1ccc2c(c1)N(C(=O)COCC(C)(C)C)c1ccccc1CC2 [Compound 32, isopropyl (5-(2-(neopentyloxy)acetyl)-10,11-dihydro-5H-dibenzo[b,f]azepin-3-yl)carbamate] |  |  |
| 21 nM and 22 nM |  | CC(C)OC(=O)Nc1ccc2c(c1)N(C(=O)Cn1cccc1)c1ccccc1CC2 [Compound 26, isopropyl (5-(2-(1H-pyrrol-1-yl)acetyl)-10,11-dihydro-5H-dibenzo[b,f]azepin-3-yl)carbamate] |  | fold increase of CAR inverse agonistic activity (potency) over lead chemical 1 (CINPA1): 32.8 fold |
|  | 28000 nM | CCNCC(=O)N1c2ccccc2CCc2ccc(NC(=O)OCC)cc21 [Compound 71] |  | % Inhibition (70 μM): 77.6% |
